Test results: paper PMC4749642, “Evaluation of anticonvulsant and antinociceptive properties of new N-Mannich bases derived from pyrrolidine-2,5-dione and 3-methylpyrrolidine-2,5-dione” (Naunyn-Schmiedeberg's Archives of Pharmacology, 2015)
Where “and” joins values, the source holds several entries; their conditions need not be identical. Equal entries are not always repeated. Marks after values point to notes of the source that are not given here.

How the values were obtained:
[1] = tested on: mice; test: Electroconvulsive threshold test (MEST test); type: in vivo, mouse
[2] = tested on: mice; test: Spontaneous locomotor activity (photoresistor actometers); type: in vivo, mouse
Description: (§1) Male CD-1 mice weighing 18–24 g were used in the in vivo experiment. The animals were kept at room temperature of 20 ± 2 °C under standard conditions (12:12 h light-dark cycle, standard pellet diet, tap water). All the experiments were performed between 8 a.m. and 3 p.m. For the experiments, the animals were selected in a random way and sacrificed by cervical dislocation immediately after the assay. The experimental protocol was approved by the Local Ethics Commission for Animal Experiments of the Jagiellonian University in Cracow, and all experiences were conducted in accordance with the 1996 NIH Guide for the Care and Use of Laboratory Animals.
(§2) The tested compounds 12 (N-[{4-(3,4-dichlorophenyl)-piperazin-1-yl}-methyl]-3-methylpyrrolidine-2,5-dione), 13 (N-[{4-(3-trifluoromethylphenyl)-piperazin-1-yl}-methyl]-3-methylpyrrolidine-2,5-dione), 15 (N-[{4-(3-methylphenyl)-piperazin-1-yl}-methyl]-3-methylpyrrolidine-2,5-dione), 23 (N-[{4-(3,4-dichlorophenyl)-piperazin-1-yl}-methyl]-pyrrolidine-2,5-dione), and 24 (N-[{4-(3-trifluoromethylphenyl)-piperazin-1-yl}-methyl]-pyrrolidine-2,5-dione) were synthesized at the Department of Medicinal Chemistry, Jagiellonian University Medical College in Cracow (Scheme 1). The synthesis of the investigated compounds was described earlier (Rybka et al. [2014]). The investigated compounds were suspended in a 0.5 % aqueous solution of methylcellulose (Loba Chemie, Germany). Lacosamide (Vimpat, UCB Pharma, Belgium), pilocarpine (Sigma-Aldrich, Germany), scopolamine butylbromide (Sigma-Aldrich, Germany), and formaldehyde (POCh, Poland) were dissolved in distilled water. Agents were administered intraperitoneally (i.p.) at a volume of 0.1 ml/10 g. Control animals were administered an equivalent volume of vehicle (0.5 % aqueous solution of methylcellulose) via the same route as the test compounds.
Locomotor activity was measured with photoresistor actometers (Ugo Basile, Italy) connected to a counter for the recording of light-beam interruptions. Mice were individually placed in plastic cages for 30 min habituation period, and then the number of light-beam crossings was counted for a 30-min session. The cages were cleaned up with 70 % ethanol after each mouse.

[3] = tested on: mice; test: Pilocarpine-induced seizure test; type: in vivo, mouse
Description: as §1, §2
The experimental procedure was originally described by Turski et al. ([1987]). Seizures were induced in mice by i.p. injection of pilocarpine at a dose of 400 mg/kg. Forty-five minutes before pilocarpine, animals were also pretreated with scopolamine butylbromide (1 mg/kg, i.p.) to reduce peripheral autonomic side effects and masticatory and stereotyped movements (Kowalczyk et al. [2014]). Direct observation was performed for 60 min to monitor the latency time to the onset of the limbic seizures, characterized by a subsequent development of behavioral symptoms, such as tremor, head bobbing, and myoclonic movements of the forelimbs progressing to recurrent myoclonic convulsions with rearing, salivation, falling, and status epilepticus (Łuszczki et al. [2008]; Turski [2000]).

[4] = tested on: mice; test: Formalin hind paw test; type: in vivo, mouse; conditions: dose 30 mg/kg i.p.; for reduction of the duration of the licking response, first (neurogenic) phase: 0–5 min after 5 % formalin; for antinociceptive effect (reduction of licking response), second (late) phase: 15–30 min after 5 % formalin
Description: as §1, §2
Antinociceptive activity in the formalin hind paw test was examined according to Laughlin et al. ([2002]). Twenty microliters of a 5 % formalin solution was injected intraplantarly (i.pl.) into the right hind paw of the mouse. […] Time (in seconds) spent on licking or biting the injected hind paw in selected intervals, 0–5 and 15–30 min, was measured in each experimental group and was an indicator of nociceptive behavior. In mice, intraplantarly injection of diluted formalin produces a biphasic nocifensive behavioral response (i.e., licking or biting the injected hind paw). The acute nociceptive phase lasts for the first 5 min, whereas the second inflammatory phase occurs between 15 and 30 min after formalin injection.

[5] = tested on: mice; test: Hot plate test; type: in vivo, mouse; conditions: dose 30 mg/kg i.p.; for latency time to pain reaction: mean ± SEM, vehicle 27.51 ± 1.36 s, cutoff 60 s
Description: as §1, §2
In the hot plate test, the mice were i.p. pretreated either with the test compound or vehicle before placing the animal on the hot plate apparatus (Panlab/Harvard Apparatus, Spain). This apparatus has an electrically heated surface and is supplied with a temperature controller that maintains the temperature at 55–56 °C. The time to the first reaction (licking or jumping) of mice to a nociceptive stimulus was recorded. The cutoff time was established to 60 s to avoid paw tissue damage (Sałat et al. [2014]).

[6] = tested on: L-type calcium channel (dihydropyridine site); test: L-type Ca channel (dihydropyridine site) [3H]nitrendipine binding assay; conditions: rat cerebral cortex
[7] = tested on: V. harveyi BB7; test: Vibrio harveyi antimutagenicity assay (vs NQNO), BB7 strain; type: cell-based; conditions: for inhibition of NQNO-induced mutagenicity in BB7 strain (in words): NQNO 40 ng/ml; for Antimutagenicity BB7 number of revertants Mean ± SD: test compound plus NQNO 40 ng/ml (NQNO line: mutagen only); for Antimutagenicity BB7 Inhib. (%) of mutagenicity: test compound plus NQNO 40 ng/ml, 25–40 % moderate, 40 % or more strong
Description: (§3) Two V. harveyi strains were used in the experiments: wild-type BB7 and genetically modified BB7XM (the UV-hypersensitive strain bearing plasmid pAB91273), which were described previously by Czyż et al. ([2000]).
(§4) Antimutagenicity assay was performed according to previously described procedures (Czyż et al. [2002]; Pękala et al. [2013]). […] This was calculated as follows: Inhibition (%) = 100 − [(R1/R2) × 100], where R1 is the number of revertants per plate induced by test compound plus mutagen and R2 is the number of revertants in the plate containing only the mutagen (Słoczyńska et al. [2010]). No antimutagenic effect was considered when the inhibition was less than 25 %; a moderate effect for an inhibition value between 25 and 40 % and a strong antimutagenicity were recorded for inhibition higher than 40 % (Gulluce et al. [2010]).

[8] = tested on: V. harveyi BB7XM; test: Vibrio harveyi mutagenicity assay, BB7XM strain; conditions: 40 ng/ml; for Mutagenicity BB7XM M.I. (mutagenic index): positive assay when M.I. ≥ 2
Description: as §3
(§5) Mutagenicity assay was performed as described previously (Czyż et al. [2000]). All experiments were carried out in triplicate and the results were expressed as mutagenic index (M.I. = the number of revertant colonies induced in the tested sample/the number of spontaneous revertants in the negative control) (Gulluce et al. [2010]).

[9] = tested on: V. harveyi BB7; test: Vibrio harveyi mutagenicity assay, BB7 strain; conditions: 40 ng/ml; for Mutagenicity BB7 M.I. (mutagenic index): positive assay when M.I. ≥ 2
Description: as §3, §5

[10] = tested on: V. harveyi BB7XM; test: Vibrio harveyi antimutagenicity assay (vs NQNO), BB7XM strain; type: cell-based; conditions: for Antimutagenicity BB7XM number of revertants Mean ± SD: test compound plus NQNO 40 ng/ml (NQNO line: mutagen only); for Antimutagenicity BB7XM Inhib. (%) of mutagenicity: test compound plus NQNO 40 ng/ml, 25–40 % moderate, 40 % or more strong
Description: as §3, §4

[11] = dose 30 mg/kg i.p., 30-min session
[12] = dose 30 mg/kg i.p., 4 h before the test, value with 95 % confidence interval
[13] = dose 100 mg/kg i.p., 4 h before pilocarpine
[14] = dose 100 mg/kg i.p., 4 h before pilocarpine 400 mg/kg

| Compound | influence on locomotor activity (number of crossings, in words) [2, 11] | reduction of the duration of the licking response, first (neurogenic) phase [4] | antinociceptive effect (reduction of licking response), second (late) phase [4] | CS50 (mA) (CI) [1, 12] | Anticonvulsant effect (%) (prolongation of latency time to seizures vs vehicle) [3, 13] | Latency to status epilepticus (s) ± SEM [3, 14] | prolongation of latency time to pain reaction vs vehicle [5] | latency time to pain reaction [5] | inhibition of NQNO-induced mutagenicity in BB7 strain (in words) [7] | Antimutagenicity BB7 number of revertants Mean ± SD [7] | Antimutagenicity BB7 Inhib. (%) of mutagenicity [7] | Mutagenicity BB7XM number of revertants Mean ± SD [8] | Mutagenicity BB7XM M.I. (mutagenic index) [8] | Mutagenicity BB7 number of revertants Mean ± SD [9] | Mutagenicity BB7 M.I. (mutagenic index) [9] | Antimutagenicity BB7XM number of revertants Mean ± SD [10] | Antimutagenicity BB7XM Inhib. (%) of mutagenicity [10] | also measured |
| --- | --- | --- | --- | --- | --- | --- | --- | --- | --- | --- | --- | --- | --- | --- | --- | --- | --- | --- |
| COC[C@@H](NC(C)=O)C(=O)NCc1ccccc1 [Lacosamide, reference compound] | significant decrease of locomotor activity | 69% | 90% | – | – | – | – | – | – | – | – | – | – | – | – | – | – | CS50 (mA) (CI) ([1]; dose 10 mg/kg i.p., 30 min before the test, 10 mg/kg): >25 mA; CS50 (mA) (CI) ([1]; dose 10 mg/kg i.p., 30 min before the test, listed as lacosamide, 10 mg/kg): above 25 mA; Anticonvulsant effect (%) (prolongation of latency time to seizures vs vehicle) ([3]; dose 30 mg/kg i.p., 30 min before pilocarpine): 12.8%; Latency to status epilepticus (s) ± SEM ([3]; dose 30 mg/kg i.p., 30 min before pilocarpine 400 mg/kg): 382.1 ± 22.86 s; Latency to status epilepticus (s) ± SEM ([3]; dose 40 mg/kg i.p., 30 min before pilocarpine 400 mg/kg): 507.7 ± 52.11 s; Anticonvulsant effect (%) (prolongation of latency time to seizures vs vehicle) ([3]; dose 40 mg/kg i.p., 30 min before pilocarpine, 40 mg/kg): 50% and 49.8%; antinociceptive activity in the hot plate test (in words) [5]: significantly prolonged the latency time |
| O=C1NC(=O)C(c2ccccc2)(c2ccccc2)N1 [Phenytoin, reference compound] | – | – | – | – | – | – | – | – | – | – | – | – | – | – | – | – | – | % inhibition of control specific binding ([6]; 10 μM): 6.6%; % inhibition of control specific binding ([6]; 100 μM): 57.8% |
| N-[{4-(3-methylphenyl)-piperazin-1-yl}-methyl]-3-methylpyrrolidine-2,5-dione [Compound 15] | – | 52% | 66% | 8.11 (7.12–9.24)*** mA | 18.5% | 406.0 ± 59.77 s | 71% | 47.12 ± 6.14 s | – | – | – | – | – | – | – | – | – | influence on locomotor activity (number of crossings, in words) ([2]; mouse, in vivo, ip, 30 mg/kg): significantly reduced the number of crossings |
| CC1CC(=O)N(CN2CCN(c3cccc(C(F)(F)F)c3)CC2)C1=O (stereo not shown) [Compound 13, N-[{4-(3-trifluoromethylphenyl)-piperazin-1-yl}-methyl]-3-methylpyrrolidine-2,5-dione] | significantly reduced the number of crossings | 79% | 89% | 9.37 (5.47–16.07)* mA | – | 296.7 ± 9.63 s | – | 56.03 ± 1.75 s | moderate inhibitors | 25 ± 4 | (35) % | 20 ± 5 | 1.7 | 22 ± 3 | 1.4 | 20 ± 4 | (16) % | – |
| O=C1CCC(=O)N1CN1CCN(c2cccc(C(F)(F)F)c2)CC1 [Compound 24, N-[{4-(3-trifluoromethylphenyl)-piperazin-1-yl}-methyl]-pyrrolidine-2,5-dione] | significantly reduced the number of crossings | 62% | 94% | 14.01 (9.05–21.70)*** mA | 1.2% | 346.7 ± 25.92 s | 72% | 47.23 ± 3.77 s | weakly suppressed | 31 ± 5 | (18) % | 19 ± 1 | 1.6 | 25 ± 4 | 1.6 | 29 ± 3 | (0) % | increase of electroconvulsive threshold (ECT) vs vehicle ([1]; dose 10 mg/kg i.p., 4 h before the test): 68%; CS50 (mA) (CI) ([1]; dose 10 mg/kg i.p., 4 h before the test, value with 95 % confidence interval): 11.11 (8.12–15.20)*** mA; increase of electroconvulsive threshold (ECT) vs vehicle ([1]; dose 30 mg/kg i.p., 4 h before the test): 114% |
